# Calls of active or inactive are those of the source. The rule behind the calls is not given here.
# Experiments:
# [1] = Inhibition of EGF-induced EGFR E746 to E750 deletion mutant-mediated pS6 phosphorylation in human HCC827 cells after 1 hr by immunoblotting method; format: cell-based; conditions: HCC827, 1 h
# [2] = molecular target: T1, Epidermal growth factor receptor (Homo sapiens, UniProt P00533); assay: Inhibition of EGF-induced EGFR-mediated Akt phosphorylation in human A431 cells after 1 hr by immunoblotting method; format: cell-based, A-431
# T1 sequence (P00533 whole entry): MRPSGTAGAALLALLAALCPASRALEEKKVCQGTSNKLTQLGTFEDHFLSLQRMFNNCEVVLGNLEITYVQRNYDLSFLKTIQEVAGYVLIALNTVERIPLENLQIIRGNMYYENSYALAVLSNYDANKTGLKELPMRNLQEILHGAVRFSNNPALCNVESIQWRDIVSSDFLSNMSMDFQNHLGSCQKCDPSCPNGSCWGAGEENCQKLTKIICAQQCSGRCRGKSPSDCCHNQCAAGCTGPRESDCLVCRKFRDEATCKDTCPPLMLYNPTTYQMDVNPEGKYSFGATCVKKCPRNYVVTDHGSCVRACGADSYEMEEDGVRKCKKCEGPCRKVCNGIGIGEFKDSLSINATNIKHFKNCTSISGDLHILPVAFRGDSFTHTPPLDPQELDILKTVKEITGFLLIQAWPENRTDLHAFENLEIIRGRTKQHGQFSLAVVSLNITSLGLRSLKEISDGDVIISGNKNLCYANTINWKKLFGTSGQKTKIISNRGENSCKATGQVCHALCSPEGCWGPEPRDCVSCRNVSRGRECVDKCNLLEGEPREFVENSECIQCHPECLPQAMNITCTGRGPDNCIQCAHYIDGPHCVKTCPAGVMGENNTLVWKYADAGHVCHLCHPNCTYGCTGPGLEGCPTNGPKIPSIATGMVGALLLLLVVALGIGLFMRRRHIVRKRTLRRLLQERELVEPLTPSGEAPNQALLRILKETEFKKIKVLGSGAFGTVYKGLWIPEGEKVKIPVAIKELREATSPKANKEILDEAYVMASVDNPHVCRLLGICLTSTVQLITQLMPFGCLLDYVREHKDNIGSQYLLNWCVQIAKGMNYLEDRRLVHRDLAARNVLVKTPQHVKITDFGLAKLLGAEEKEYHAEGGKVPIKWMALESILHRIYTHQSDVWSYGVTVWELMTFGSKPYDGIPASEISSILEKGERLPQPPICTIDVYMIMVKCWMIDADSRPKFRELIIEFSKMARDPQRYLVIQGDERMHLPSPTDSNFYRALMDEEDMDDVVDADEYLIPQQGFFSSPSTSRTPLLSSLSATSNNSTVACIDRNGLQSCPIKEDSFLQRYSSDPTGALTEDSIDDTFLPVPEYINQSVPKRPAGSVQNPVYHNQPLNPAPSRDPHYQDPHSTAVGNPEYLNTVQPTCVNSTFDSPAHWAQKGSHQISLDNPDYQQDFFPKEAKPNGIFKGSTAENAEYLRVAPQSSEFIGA
# [3] = molecular target: T2, Epidermal growth factor receptor (Homo sapiens, UniProt P00533, L858R/T790M); assay: Inhibition of EGFR L858R/T790M mutant (unknown origin) using Y12-Sox peptide as substrate preincubated for 30 mins by fluorescence assay; format: protein assay
# T2 sequence (P00533 25-1210 T790M/L858R limits assumed): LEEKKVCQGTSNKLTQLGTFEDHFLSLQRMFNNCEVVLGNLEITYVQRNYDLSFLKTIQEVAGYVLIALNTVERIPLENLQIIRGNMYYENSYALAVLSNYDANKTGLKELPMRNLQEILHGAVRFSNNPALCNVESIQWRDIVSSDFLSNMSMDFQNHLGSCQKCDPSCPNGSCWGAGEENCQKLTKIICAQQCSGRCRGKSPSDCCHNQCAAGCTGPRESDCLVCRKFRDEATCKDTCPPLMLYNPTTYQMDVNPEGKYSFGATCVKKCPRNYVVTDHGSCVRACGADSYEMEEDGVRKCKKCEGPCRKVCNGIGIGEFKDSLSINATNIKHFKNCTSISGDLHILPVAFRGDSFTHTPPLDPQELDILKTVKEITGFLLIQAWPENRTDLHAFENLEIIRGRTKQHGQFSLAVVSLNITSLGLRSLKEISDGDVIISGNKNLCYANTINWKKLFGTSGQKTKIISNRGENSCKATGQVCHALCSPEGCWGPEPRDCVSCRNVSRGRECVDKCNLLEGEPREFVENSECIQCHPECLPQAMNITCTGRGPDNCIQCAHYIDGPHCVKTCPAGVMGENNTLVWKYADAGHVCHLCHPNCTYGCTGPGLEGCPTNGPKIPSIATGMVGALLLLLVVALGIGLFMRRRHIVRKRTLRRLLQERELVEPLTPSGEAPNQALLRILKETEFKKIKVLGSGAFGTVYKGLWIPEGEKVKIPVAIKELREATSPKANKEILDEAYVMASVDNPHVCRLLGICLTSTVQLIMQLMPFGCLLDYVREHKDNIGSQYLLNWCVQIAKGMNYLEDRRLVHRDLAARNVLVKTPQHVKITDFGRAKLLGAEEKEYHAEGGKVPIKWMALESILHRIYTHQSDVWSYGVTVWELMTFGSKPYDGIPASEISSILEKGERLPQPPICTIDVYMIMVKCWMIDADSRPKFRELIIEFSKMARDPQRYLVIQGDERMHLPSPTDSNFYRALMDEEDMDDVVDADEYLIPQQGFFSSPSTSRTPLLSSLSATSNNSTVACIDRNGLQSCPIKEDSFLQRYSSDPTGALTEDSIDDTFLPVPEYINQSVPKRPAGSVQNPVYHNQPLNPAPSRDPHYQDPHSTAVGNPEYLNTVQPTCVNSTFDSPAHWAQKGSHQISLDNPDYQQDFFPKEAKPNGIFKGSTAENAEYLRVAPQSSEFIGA
# [4] = molecular target: T1, Epidermal growth factor receptor; assay: Inhibition of EGF-induced EGFR autophosphorylation in human A431 cells after 1 hr by immunoblotting method; format: cell-based, A-431
# [5] = molecular target: T2, Epidermal growth factor receptor; assay: Inhibition of EGF-induced EGFR L858R/T790M mutant-mediated pS6 phosphorylation in human […] cells after 1 hr by immunoblotting method; format: cell-based
# [6] = molecular target: T1, Epidermal growth factor receptor; assay: Inhibition of wild type EGFR (unknown origin) using Y12-Sox peptide as substrate preincubated for 30 mins by fluorescence assay
# [7] = molecular target: T2, Epidermal growth factor receptor; assay: Inhibition of EGF-induced EGFR L858R/T790M mutant-mediated ERK phosphorylation in human […] cells after 1 hr by immunoblotting method; format: cell-based
# [8] = Growth inhibition of human HCC827 cells harboring EGFR E746 to E750 deletion mutant assessed as reduction in cell viability after 72 hrs by CellTiter Glo assay; format: functional; conditions: HCC827, 72 h
# [9] = molecular target: T1, Epidermal growth factor receptor; assay: Covalent binding affinity to wild type EGFR (unknown origin) after 1 hr by mass spectrometry
# A-431 = assay: Growth inhibition of human A431 cells harboring wild type EGFR assessed as reduction in cell viability after 72 hrs by CellTiter Glo assay; format: functional; conditions: A-431, 72 h
# [10] = molecular target: T1, Epidermal growth factor receptor; assay: Inhibition of EGF-induced EGFR-mediated ERK phosphorylation in human A431 cells after 1 hr by immunoblotting method; format: cell-based, A-431
# [11] = molecular target: T2, Epidermal growth factor receptor; assay: Inhibition of EGF-induced EGFR L858R/T790M mutant-mediated Akt phosphorylation in human […] cells after 1 hr by immunoblotting method; format: cell-based
# [12] = Inhibition of EGF-induced EGFR E746 to E750 deletion mutant autophosphorylation in human HCC827 cells after 1 hr by immunoblotting method; format: cell-based; conditions: HCC827, 1 h
# [13] = molecular target: T1, Epidermal growth factor receptor; assay: Inhibition of EGF-induced EGFR-mediated pS6 phosphorylation in human A431 cells after 1 hr by immunoblotting method; format: cell-based, A-431
# [14] = molecular target: T1, Epidermal growth factor receptor; assay: Reversible inhibition of EGF-induced EGFR autophosphorylation in human A431 cells assessed as residual activity compound preincubated at 1 uM for 1 hr measured after 1 hr post compound washout by immunoblotting method; format: cell-based; conditions: A-431
# [15] = Inhibition of EGF-induced EGFR E746 to E750 deletion mutant-mediated Akt phosphorylation in human HCC827 cells after 1 hr by immunoblotting method; format: cell-based; conditions: HCC827, 1 h
# NCI-H1975 = assay: Growth inhibition of human NCI-H1975 cells harboring EGFR L858R/T790M mutant assessed as reduction in cell viability after 72 hrs by CellTiter Glo assay; format: functional; conditions: NCI-H1975, 72 h
# [16] = molecular target: T2, Epidermal growth factor receptor; assay: Inhibition of EGF-induced EGFR L858R/T790M mutant autophosphorylation in human […] cells after 1 hr by immunoblotting method; format: cell-based
# [17] = molecular target: T1, Epidermal growth factor receptor; assay: Reversible inhibition of EGF-induced EGFR autophosphorylation in human A431 cells assessed as residual activity compound preincubated at 1 uM for 1 hr measured after 8 hrs post compound washout by immunoblotting method; format: cell-based; conditions: A-431
# [18] = molecular target: T1, Epidermal growth factor receptor; assay: Inhibition of EGF-induced EGFR autophosphorylation in human A431 cells at 1 uM after 10 mins by immunoblotting method; format: cell-based; conditions: A-431
# Homo sapiens = species: Homo sapiens; assay: Covalent binding affinity to EGFR C773S mutant (unknown origin) after 1 hr by mass spectrometry
# [19] = molecular target: T1, Epidermal growth factor receptor; assay: Inhibition of EGF-induced EGFR autophosphorylation in human A431 cells at 1 uM after 30 mins by immunoblotting method; format: cell-based; conditions: A-431
# [20] = molecular target: T1, Epidermal growth factor receptor; assay: Irreversible inhibition of EGF-induced EGFR autophosphorylation in human A431 cells assessed as residual activity compound preincubated at 1 uM for 1 to 8 hrs measured after 1 hr post compound washout by immunoblotting method; format: cell-based; conditions: A-431
# [21] = molecular target: T1, Epidermal growth factor receptor; assay: Inhibition of EGF-induced EGFR autophosphorylation in human A431 cells at 1 uM after 2 mins by immunoblotting method; format: cell-based; conditions: A-431
EC50 [1] [nM],IC50 [2] [nM],IC50 [3] [nM],IC50 [4] [nM],EC50 [5] [nM],IC50 [6] [nM],EC50 [7] [nM],Activity [9],GI50 (A-431) [nM],IC50 [10] [nM],EC50 [11] [nM],EC50 [12] [nM],IC50 [13] [nM],EC50 [15] [nM],GI50 (NCI-H1975) [nM],EC50 [16] [nM],Compound,GI50 [8] [nM],also measured
< 20,136,> 5000,166,> 5000,< 1,> 5000,inactive,18,1160,> 4580,27,243,< 20,89,> 5000,CCC(=O)Nc1cccc(Nc2cc(Nc3cccc(Br)c3)ncn2)c1,15,Activity [14]: 20%; Activity [17]: 60%
< 20,104,5.4,49,427,< 1,172,> 80%,18,509,166,< 20,511,< 20,134,441,C=CC(=O)Nc1cccc(Nc2cc(Nc3cccc(Br)c3)ncn2)c1,< 5,inhibition [18]: 90%; Activity (Homo sapiens): inactive; inhibition [19]: Active; inhibition [20]: Active; inhibition [21]: 50%

# Source: ChEMBL document CHEMBL3217690, “Superiority of a novel EGFR targeted covalent inhibitor over its reversible counterpart in overcoming drug resistance” (Medchemcomm, 2012)
